From patent US20150224085A1, “METHOD OF ADMINISTERING A 5,5-FUSED HETEROARYLENE HEPATITIS C VIRUS INHIBITOR FOR TREATING OF PREVENTING HEPATITIS C VIRUS INFECTION” (priority 2012, published 2015)
In brackets after ≈: the same amount, converted by molar mass.

Legend:
[1] = 28-day toxicity study in mice
Protocol: (§1) Safety margins were calculated based upon proposed human doses in the first-in-human trial and human equivalent dose (HED) calculations derived from the two 28-day toxicology studies in mice and monkeys. This approach is consistent with the United States Food and Drug Administration Guidance for Industry entitled “Estimating the Maximum Safe Starting Dose in Initial Clinical Trials for Therapeutics in Adult Healthy Volunteers,” July 2005.

[2] = in vivo
Protocol: (§2) The phase I/IIa study was designed to evaluate safety and tolerability, pharmacokinetics (PK), food effect, and antiviral activity with regard to the Compound. The key safety parameters that were evaluated in the trial include adverse events (AEs), physical examination, vital signs, 12-lead electrocardiogram (ECG), and standard safety laboratory tests. The key antiviral activity parameters that were evaluated in the trial include changes in plasma HCV RNA and emergence of resistance mutations. The key pharmacokinetic parameters that were evaluated in the trial include plasma and urine concentrations of the Compound.
The Compound was first evaluated in a randomized, double-blind, placebo-controlled, sequential dose escalation study in 48 healthy subjects. For each cohort, there were 6 subjects to receive the Compound and 2 subjects to receive placebo. Except cohort 5a, the Compound was administered under fasted conditions.
(§3) In Group B, the Compound was evaluated in an open-label, single day study in 18 subjects with chronic HCV Genotype 1, 2, or 3 infection. […] For all cohorts, dosing was under fasted in this study.

HCV Genotype 4 = assay: Phase I/IIa Group D: HCV RNA reduction, 3-day dosing, Genotype 4; assay type: in vivo, hepatitis C virus; conditions: n = 4
Protocol: as §2
(§4) In the phase I/IIa study, plasma HCV RNA was quantitated using a validated commercial assay (COBAS® TAQMAN®) with a lower limit of quantitation of 25 IU/mL. HCV RNA genotyping was performed at Baseline using the Versant HCV Genotype Assay (LiPA) 2.0.
(§5) In Group D, the Compound was evaluated in an randomized, double-blind, placebo-controlled, parallel dosing study in 30 treatment-naive, genotypes 2, 3, and 4 HCV-infected subjects.
(§6) For all cohorts, dosing was under fasted in this study.

HCV Genotype 1, 2, and 3 = assay: Phase I/IIa Group B: antiviral activity of single dose across genotypes; assay type: in vivo, hepatitis C virus; conditions: Genotype 1, 2, and 3 HCV-infected subjects
Protocol: as §2, §4, §3

[3] = 28-day toxicity study in cynomolgus monkeys
Protocol: as §1

HCV Genotype 3 = assay: Phase I/IIa Group B: plasma HCV RNA reduction after single dose, Genotype 3; assay type: in vivo, hepatitis C virus; conditions: 1 subject
Protocol: as §2, §4, §3

clinical [4] = conditions: human, in vivo
Protocol: as §2, §4
(§7) In Group C, the Compound was evaluated in a randomized, double-blind, placebo-controlled, parallel dosing study in 34 treatment-naive, genotype 1 HCV-infected subjects.
as §5, §6

clinical [5] = conditions: human, in vivo; remark: listed apart in the source
Protocol: as §2, §4, §3

HCV Genotype 1a = assay: Phase I/IIa Group B: plasma HCV RNA reduction after single dose, Genotype 1a; assay type: in vivo, hepatitis C virus; conditions: for Maximum Viral Load Reduction after Single Dose: 1 subject; for Mean maximum viral load reduction after Single Dose: 2 subjects
Protocol: as §2, §4, §3

HCV Genotype 1b = assay: Phase I/IIa Group C: HCV RNA reduction, 3-day dosing, Genotype 1b; assay type: in vivo, hepatitis C virus
Protocol: as §2, §4, §7, §6

[6] = system: least susceptible HCV genotype; assay: Protein-binding adjusted EC90; assay type: cell-based; conditions: Hepatitis C virus, read-out: protein-binding adjusted EC90
HCV Genotype 2 = assay: Phase I/IIa Group B: plasma HCV RNA reduction after single dose, Genotype 2; assay type: in vivo, hepatitis C virus; conditions: 1 subject
Protocol: as §2, §4, §3

[7] = system: HCV Genotypes 1, 2, 3, and 4; assay: Phase I/IIa Groups C and D: antiviral activity across genotypes; assay type: in vivo, hepatitis C virus
Protocol: as §2, §4, §7, §5, §6

[8] = 28 days, doses up to 250 mg/kg/day
[9] = proposed human dose 1 mg/subject/day (0.02 mg/kg/day)
[10] = proposed human dose 5 mg/subject/day (0.08 mg/kg/day)
[11] = proposed human dose 10 mg/subject/day (0.17 mg/kg/day)
[12] = proposed human dose 25 mg/subject/day (0.42 mg/kg/day)
[13] = proposed human dose 50 mg/subject/day (0.83 mg/kg/day)

COC(=O)N[C@H](C(=O)N1CCC[C@H]1c1nc2cc(-c3csc4c(-c5ccc(-c6cnc([C@@H]7CCCN7C(=O)[C@H](NC(=O)OC)c7ccccc7)[nH]6)cc5)csc34)ccc2[nH]1)C(C)C [the Compound, [(S)-1-((S)-2-{6-[6-(4-{(S)-2-[1-((R)-2-methoxycarbonylamino-2-phenyl-acetyl)-pyrrolidin-2-yl]-3H-imidazol-4-yl}-phenyl)-thieno[3,2-b]thiophen-3-yl]-1H-benzoimidazol-2-yl}-pyrrolidine-1-carbonyl)-2-methyl-propyl]-carbamic acid methyl ester]
no observable effect level (NOEL) ([1]; 28-day mouse study): 150 mg/kg/day | toxicological target [1, 8]: did not define any toxicological target | NOAEL at 28 days ([1]; both, mouse, in vivo): 250 mg/kg/day | liver histology ([1]; males and females, 250 mg/kg/day): minimal to mild diffuse hypertrophy of centrilobular hepatocytes | increase in plasma levels with dose ([1]; mouse, in vivo, 150 mg/kg/day): little or no increase | Mean ALT values at Day 29 ([1]; mouse, in vivo, 250 mg/kg/day): 88.4 U/L | Margin of Safety, Mouse [1, 9]: 610 fold | Margin of Safety, Mouse [1, 10]: 153 fold | Margin of Safety, Mouse [1, 11]: 72 fold | Margin of Safety, Mouse [1, 12]: 29 fold | Margin of Safety, Mouse [1, 13]: 15 fold | dose-limiting toxicity [2]: no subject met protocol-defined criteria for a dose-limiting toxicity | intensity of adverse events [2]: mild to moderate | Mean (Range) Maximal HCV RNA Reduction from Baseline (HCV Genotype 4; 50 mg BID x 3 days): 3.9 (3.4-4.5) log10 IU/mL | Mean (Range) Maximal HCV RNA Reduction from Baseline (HCV Genotype 4; 100 mg QD x 3 days): 3.6 (2.3-4.6) log10 IU/mL | antiviral activity (HCV Genotype 1, 2, and 3): potent pan-genotypic antiviral activity | no observable effect level (NOEL) ([3]; 28-day monkey study): 250 mg/kg/day | toxicological target [3, 8]: did not define any toxicological target | increase in plasma levels with dose ([3]; cynomolgus monkey, in vivo): little or no increase | Margin of Safety, Monkey [3, 9]: 807 fold | Margin of Safety, Monkey [3, 10]: 204 fold | Margin of Safety, Monkey [3, 11]: 95 fold | Margin of Safety, Monkey [3, 12]: 38 fold | Margin of Safety, Monkey [3, 13]: 19 fold | Maximum Viral Load Reduction after Single Dose (HCV Genotype 3; 25 mg single dose): 2.2 log10 IU/mL | Maximum Viral Load Reduction after Single Dose (HCV Genotype 3; 50 mg single dose): 3.7 log10 IU/mL | Maximum Viral Load Reduction after Single Dose (HCV Genotype 3; 100 mg single dose): 3.3 log10 IU/mL | AUC0-24 (clinical [4]; 25 mg): 235 ± 79.9 ng·h/mL | Cmax (clinical [4]; 25 mg): 20 ± 6.74 ng/mL | Tmax (clinical [4]; 25 mg): 3.9 (3.0-6.0) hr | AUC(0-t) (clinical [4]; 25 mg, AUC0-24): 142 ± 44.5 ng·h/mL | Cmax (clinical [4]; 25 mg, Cmax): 14 ± 5.19 ng/mL | Tmax (clinical [4]; 25 mg, Tmax): 3.8 h | half-life (clinical [4]; 25 mg, t1/2): 20.8 ± 4.06 h | AUC(0-t) (clinical [4]; 50 mg): 384 ± 204 ng·h/mL | t1/2 (clinical [4]; 50 mg): 19.7 ± 2.0 h | AUC(0-t) (clinical [4]; 50 mg, AUC0-12): 260 ± 102 ng·h/mL | AUC(0-t) (clinical [4]; 50 mg, AUC0-24): 387 ± 115 ng·h/mL | Cmax (clinical [4]; 50 mg, Cmax): 32 ± 8.12 ng/mL | Tmax (clinical [4]; 50 mg, Tmax): 3.4 h | half-life (clinical [4]; 50 mg, t1/2): 23 ± 3.81 h | t1/2 (clinical [4]; 100 mg): 19.3 ± 2.69 h | AUC(0-t) (clinical [4]; 100 mg, AUC0-24): 410 ± 122 ng·h/mL | Cmax (clinical [4]; 100 mg, Cmax): 38 ± 8.6 ng/mL | Tmax (clinical [4]; 100 mg, Tmax): 3.7 h | half-life (clinical [4]; 100 mg, t1/2): 22.9 ± 3.6 h | half-life (clinical [4]; Plasma half-life): ~20 h | Tmax (clinical [4]; Tmax): 3.3 h | half-life (clinical [4]; t1/2): 19.7 ± 5.7 h | exposure versus dose (clinical [5]): Dose proportional exposure | AUC(0-inf) (clinical [5]; 1 mg): 8 ± 5.8 ng·h/mL | Cmax (clinical [5]; 1 mg): 0.5 ± 0.4 ng/mL | Tmax (clinical [5]; 1 mg): 4 h | half-life (clinical [5]; 1 mg): 13 ± 6 h | AUC(0-inf) (clinical [5]; 5 mg): 39 ± 14.5 ng·h/mL | Cmax (clinical [5]; 5 mg): 2.2 ± 1.1 ng/mL | Tmax (clinical [5]; 5 mg): 4 h | half-life (clinical [5]; 5 mg): 13 ± 0.5 h | AUC(0-inf) (clinical [5]; 10 mg): 188 ± 3.7 ng·h/mL | Cmax (clinical [5]; 10 mg): 9 ± 1.2 ng/mL | Tmax (clinical [5]; 10 mg): 3 h | half-life (clinical [5]; 10 mg): 24 ± 5.9 h | AUC(0-inf) (clinical [5]; 25 mg): 216 ± 80.6 ng·h/mL | Cmax (clinical [5]; 25 mg): 13.8 ± 3.8 ng/mL | Tmax (clinical [5]; 25 mg): 3.5 h | half-life (clinical [5]; 25 mg): 18 ± 3.8 h | AUC(0-inf) (clinical [5]; 50 mg): 576 ± 299 ng·h/mL | Cmax (clinical [5]; 50 mg): 35.2 ± 16.5 ng/mL | Tmax (clinical [5]; 50 mg): 4 h | half-life (clinical [5]; 50 mg): 22 ± 1.8 h | AUC(0-inf) (clinical [5]; 100 mg): 1340 ± 282 ng·h/mL | Cmax (clinical [5]; 100 mg): 95 ± 20.4 ng/mL | Tmax (clinical [5]; 100 mg): 4 h | half-life (clinical [5]; 100 mg): 19 ± 2 h | Maximum Viral Load Reduction after Single Dose (HCV Genotype 1a; 1 mg single dose): 0.8^2 log10 IU/mL | Mean maximum viral load reduction after Single Dose (HCV Genotype 1a; 5 mg single dose): 2.6^1 log10 IU/mL | Maximum Viral Load Reduction after Single Dose (HCV Genotype 1a; 10 mg single dose): 2.9^2 log10 IU/mL | Mean maximum viral load reduction after Single Dose (HCV Genotype 1a; 25 mg single dose): 3.7^1 log10 IU/mL | Maximum Viral Load Reduction after Single Dose (HCV Genotype 1a; 50 mg single dose): 2.5^2 log10 IU/mL | Maximum Viral Load Reduction after Single Dose (HCV Genotype 1a; 100 mg single dose): 3.3^2 log10 IU/mL | Mean (Range) Maximal HCV RNA Reduction from Baseline (HCV Genotype 1b; 25 mg QD x 3 days, n = 3): 3.0 (2.0-4.2) log10 IU/mL | Mean (Range) Maximal HCV RNA Reduction from Baseline (HCV Genotype 1b; 50 mg QD x 3 days, n = 2): 4.3 (4.1-4.5) log10 IU/mL | EC90 [6]: ~2.3 ng/mL (≈ 2.6 nM) | Maximum Viral Load Reduction after Single Dose (HCV Genotype 2; 25 mg single dose): 0.4 log10 IU/mL | Maximum Viral Load Reduction after Single Dose (HCV Genotype 2; 50 mg single dose): 3.2 log10 IU/mL | Maximum Viral Load Reduction after Single Dose (HCV Genotype 2; 100 mg single dose): 3.5 log10 IU/mL | antiviral activity ([7]; Genotype 1, 2, 3, and 4 HCV-infected subjects): potent, pan-genotypic antiviral activity | rebound (>1.0 log10 IU/mL increase over nadir) ([7]; during the 3 days of dosing): No subject experienced a rebound | mean maximal HCV RNA reductions ([7]; total dose of 100 mg/day for 3 days, Genotypes 1, 3, and 4): approximately 3.5 log10 IU/mL
